Data published in patent publication US20250177566A1, “USE OF CHEMICAL EPIGENETIC MODIFIERS TO MODULATE GENE EXPRESSION” (The University of North Carolina at Chapel Hill, priority 2022, published 2025).

Assays:
Type in all cases: cell-based, human
[1] = test system: AAV transgene expression (firefly luciferase); assay: AAV regulation with first generation CEM, dual luciferase assay, HEK293T Renilla; details: FIG. 12, 50, 200, 500, 1000 nM
Source text: (§1) It was investigated whether rAAV transgene expression can be epigenetically controlled. Rapid screening of CEM technology can be performed with dual liucierase assays. (FIG. 10). Briefly, a cell line can be stably transduced with Ef1a-Renilla, enabling normalization to cell number. The cells are then either infected with AAV or tranfected with plasmid and dosed with a chemical epigenetic modifier. Luminescence can then be measured with the Dual Lucieferase Reporter, commercially available from Promega. This approach is described in more detail in the methods section of the example. Gene activation can be described as normalized luciferase or fold change. A measure of total gene expression can be calculated by
Preliminary regulation of AAV with first generation CEMs is depicted in FIG. 11A. The prototype system is autogenous, saving casssette space. (FIG. 11B). […] Preliminary regulation of AAV with first generation CEMs in HEK293T Renilla cells using the cassette in FIG. 11B results are shown in FIG. 13, with multiplicity of infection (MOI)=number of viral genomes/cell.

[2] = test system: MYOD1; assay: MYOD1 mRNA activation in HEK293T (dCas9, MS2-FKBP*x2), qRT-PCR; details: FIG. 7E; for fold change, MYOD1 mRNA (MYOD1 gRNA vs NT gRNA): 24 hrs
Protocol: HCT116 cells were stably infected with dCas9 and MS2-FKBP*x2 via lentivirus. NT gRNA was transfected and the change of CXCR4 mRNA expression were quantified with RNA extraction and qRT-PCR, normalized to GAPDH. After 24 hrs of SLF*-CEMa exposure, the cells were separated into three groups: 1) continuous SLF*-CEMa treatment; 2) washout with media; and 3) washout with 20 μM AP1867 added. RNA extraction was performed at 12, 24, 48, and 72 hrs time points. […] HCT116 cells were stably expressing dCas9 and MS2-FKBP*x2 constructs and transfected with CXCR4 gRNA or NT gRNA. APC CXCR4 antibody was used in flow cytometry at referred time points. […] HEK293T cells were lentivirally infected with dCas9 and MS2-FKBP*x2 constructs and transfected with MYOD1 gRNA or NT gRNA. RNA extraction and qRT-PCR were performed after 24 hrs of CEM207 treatment in 5 nM, 25 nM, and 50 nM concentrations along with no chemical treatment as the control group. MYOD1 mRNA expression level was normalized to GAPDH. […] Stable dCas9 and MS2-FKBP*x2 expressing HEK293T cells were transfected with CXCR4 gRNA and NT gRNA. RNA extraction and qRT-PCR were performed after 24 hrs of 25 nM CEM207 or no chemical treatment. CXCR4 mRNA expression level was normalized to GAPDH. […] Stable dCas9 and MS2-FKBP*x2 expressing HEK293T cells were transfected with IL1RN gRNA and NT gRNA. RNA extraction and qRT-PCR were performed after 24 hrs of 25 nM CEM207 treatment. IL1RN mRNA expression level was normalized to GAPDH. […] Stable dCas9 and MS2-FKBP*x2 expressing HEK293T cells were transfected with ASLC1 gRNA and NT gRNA. RNA extraction and qRT-PCR were performed after 24 hrs of 25 nM CEM207 treatment. IL1RN mRNA expression level was normalized to GAPDH. […] Error bars represent the standard deviation.
As a gene-specific activation technology, it is important to investigate the universal applicability of SLF*-CEMa and evaluate their ability to activate variable genes in different tissue cells. To do so, HEK293T cells stably expressing dCas9 and MS2-FKBP*x2 constructs via lentiviral infection were established and benchmarked for the gene activation level of MYOD1, CXCR4, and IL1RN after CEM207 treatment for 24 hours. HEK293T cells transfected with MYOD1 gRNA were treated with 5 nM, 25 nM, or 50 nM of CEM207. RNA extraction and qRT-PCR were preformed after 24 hours. […] As a result, another gene was tested in the […] cell line. Stably infected cells were transfected with ASCL1 gRNA and mRNA expression was measured by qRT-PCR.
RNA extraction and qRT-PCR. All RNA extraction experiments were conducted in 12-well plate format. Culturing medium was removed, and cells were washed with 1×PBS, following with 0.05% trypsin to disassociate. […] The primer sets used in quantifying each gene can be found in Table 4.

[3] = test system: rAAV2 transgene expression (firefly luciferase); assay: rAAV2 SLF* CEM system dual luciferase assay, HEK293T Renilla, multiplicity of infection; details: FIGS. 14B and 14C; 0, 10 or 100 nM CEM207; increasing vg/cell
Source text: as §1
Next, it was determined whether SLF*CEMs can regulate AAV. The cassette shown in FIG. 14A was inserted into rAAV2 and infected into HEK293T Renilla. […] Next, it was explored whether the cassette was truly modular by varying the promoter while retaining SLF* CEM successful activation of rAAV2. […]
Day 4 (72 h): Data was obtained using the Promega Dula Luciferase Reporter (DLR) assay: first, the cells were washed with 100 μL of PBS/well dropwise followed by 20 μL of 1× passive lysis buffer (PLB) added to each well. The cells were incubated for 15 minutes in PLB and the assay ran on pheraSTAR microplate reader with 100 μL of each DLR reagent, gain=3600.

COc1ccc2c(c1)C(c1ccc(Cl)cc1)=N[C@@H](CC(=O)NCc1cn(CCOCCOCCOCCNC(=O)CCSCCC[C@@H]3/C=C(\C)C[C@H](C)C[C@H](OC)[C@H]4O[C@@](O)(C(=O)C(=O)N5CCCC[C@H]5C(=O)O[C@H](/C(C)=C/[C@@H]5CC[C@@H](O)[C@H](OC)C5)[C@H](C)[C@@H](O)CC3=O)[C@H](C)C[C@@H]4OC)nn1)c1nnc(C)n1-2 [CEM87, reference compound]
luminescence, fold change compared to no treatment [1]: dose dependent increase in luminscence

CC[C@H](C(=O)N1CCCC[C@H]1C(=O)O[C@H](CCc1ccc(OC)c(OC)c1)c1cccc(OCC(=O)NCCOCCOCCNC(=O)C[C@@H]2N=C(c3ccc(Cl)cc3)c3c(sc(C)c3C)-n3c(C)nnc32)c1)c1cc(OC)c(OC)c(OC)c1 [CEM207, (R)-1-(3-((14-((S)-4-(4-Chlorophenyl)-2,3,9-trimethyl-6H-thieno[3,2-f][1,2,4]triazolo[4,3-a][1,4]diazepin-6-yl)-2,13-dioxo-6,9-dioxa-3,12-diazatetradecyl)oxy)phenyl)-3-(3,4-dimethoxyphenyl) propyl(S)-1-((S)-2-(3,4,5-trimethoxyphenyl)butanoyl) piperidine-2-carboxylate]
MYOD1 mRNA expression ([2]; 5 nM, 25 nM, or 50 nM, 24 hours): dose-dependent increase
fold change, MYOD1 mRNA (MYOD1 gRNA vs NT gRNA) ([2]; 5 nM): 5.4 fold
fold change, MYOD1 mRNA (MYOD1 gRNA vs NT gRNA) ([2]; 25 nM): 10.8 fold
fold change, MYOD1 mRNA (MYOD1 gRNA vs NT gRNA) ([2]; 50 nM): 10.9 fold
activation of rAAV2 luciferase expression with viral titer escalation [3]: compatible with viral titer escalation
